Data published in patent US7790706B2, “Treatment of inflammation with 5α reduced metabolites” (The University of Edinburgh, priority 2002, dated 2010).
“Also recorded” adds a separate entry of the source.

Key:
[1] = biological target: T1, glucocorticoid receptor (GR) (Homo sapiens, UniProt P04150); experiment: GR activation reporter: Hela cells transfected with GR and MMTV-luciferase; format: cell-based; conditions: for Induction of luciferase (GR activation), Example 5 / luciferase induction in response to activation of GR / luciferase induction in cells without GR: 1 micromol/l; for luciferase induction in response to activation of GR: Hela cells transfected with GR and MMTV-luciferase; for luciferase induction in cells without GR: Hela cells transfected with luciferase but without GR
T1 construct: expressed in transfected cells; host or cells: HeLa cells
T1 sequence (P04150 1-777): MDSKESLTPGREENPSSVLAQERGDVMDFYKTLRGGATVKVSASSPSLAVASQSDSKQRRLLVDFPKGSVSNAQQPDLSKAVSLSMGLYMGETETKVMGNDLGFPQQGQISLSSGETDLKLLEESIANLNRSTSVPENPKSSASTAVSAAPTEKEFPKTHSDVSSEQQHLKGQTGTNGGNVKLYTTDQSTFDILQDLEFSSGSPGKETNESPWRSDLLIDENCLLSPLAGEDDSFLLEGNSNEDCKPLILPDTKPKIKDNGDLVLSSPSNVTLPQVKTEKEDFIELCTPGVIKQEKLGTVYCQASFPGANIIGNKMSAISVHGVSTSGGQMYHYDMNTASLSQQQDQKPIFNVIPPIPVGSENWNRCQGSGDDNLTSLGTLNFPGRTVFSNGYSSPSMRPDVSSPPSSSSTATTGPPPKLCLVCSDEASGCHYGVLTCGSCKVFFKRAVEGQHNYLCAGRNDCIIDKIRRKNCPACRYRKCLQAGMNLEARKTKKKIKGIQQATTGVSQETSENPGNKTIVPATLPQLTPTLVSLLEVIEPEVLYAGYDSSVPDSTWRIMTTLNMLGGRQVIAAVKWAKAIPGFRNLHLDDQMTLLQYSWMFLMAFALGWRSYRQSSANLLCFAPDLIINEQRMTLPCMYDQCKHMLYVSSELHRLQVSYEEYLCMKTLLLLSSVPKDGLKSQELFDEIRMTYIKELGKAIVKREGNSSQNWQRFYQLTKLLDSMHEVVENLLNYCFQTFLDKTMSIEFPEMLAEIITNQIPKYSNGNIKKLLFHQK
Description: Comparative potency Fold induction of luciferase activity as a consequence of GR activation in Hela cells transfected with GR and luciferase under the control of a GRE and MMTV promoter (n=3). All steroids at 1 μM. Dex=dexamethasone; B=corticosterone; αDHB=5α-dihydrocorticosterone; αTHB=5α-tetrahydrocorticosterone; βDHB=5β-dihydrocorticosterone; βTHB=5β-tetrahydrocorticosterone. *indicates p<0.05 and ***p<0.001 in comparison with corticosterone. 5α-reduced metabolites of corticosterone activate glucocorticoid receptors with similar potency as corticosterone (B). […] 5β-reduced metabolites have no effect.
Dose response. Fold induction of luciferase activity as a consequence of GR activation in Hela cells transfected with GR and luciferase under the control of a GRE and MMTV promoter (n=3).
Corticosterone (B) and 5α-tetrahydrocorticosterone (5αTHB) or vehicle (LTR) were added to the medium (with final steroid concentrations of 1 micromol/l) of Hela cells transfected with GR and a plasmid expressing luciferase under the control of an MMTV glucocorticoid responsive promoter (grey bars) and in transfected cells with luciferase but without GR (open bars).
HeLa cells were transfected with glucocorticoid receptor (GR) and MMTV-luciferase (LTR) as a glucocorticoid sensitive reporter. Induction of luciferase was measured in response to addition of 5α-tetrahydrocorticosterone (5α-THB) with and without corticosterone (B). Data (mean±SEM, n=6) show responses to individual steroids, then the additive responses predicted (Sum) and observed (Actual).
HeLa cells were transfected with glucocorticoid receptor (GR) and MMTV-luciferase (LTR) as a glucocorticoid sensitive reporter. Induction of luciferase was measured in response to addition of 1 micromol/l concentrations of corticosterone (B), cortisol (F), 5alpha-dihydrocortisol (DHF5a) and 5alpha-tetrahydrocortisol (THF5a).

[2] = tested on: glucocorticoid receptors (GR) in hepatocytes; experiment: Binding to glucocorticoid receptor in hepatocytes (3H-dexamethasone displacement); conditions: 24° C., 1 h, compared with corticosterone (B)
Description: Hepatocytes were incubated at 24° C. for 1 h in the presence of ^3H-dexamethasone and increasing concentrations of dexamethasone in the concentration range 0.632 nM to 200 μM. Cells were harvested and the radioactivity bound was determined by β-scintillation counting. *=p<0.001 versus B. The results are shown in FIG. 1.

glucocorticoid receptors = biological target: T2, glucocorticoid receptors (Rattus norvegicus, UniProt P06536); conditions: Carlstedt-Duke et al 1977; cited from earlier work
T2 sequence (P06536 1-795): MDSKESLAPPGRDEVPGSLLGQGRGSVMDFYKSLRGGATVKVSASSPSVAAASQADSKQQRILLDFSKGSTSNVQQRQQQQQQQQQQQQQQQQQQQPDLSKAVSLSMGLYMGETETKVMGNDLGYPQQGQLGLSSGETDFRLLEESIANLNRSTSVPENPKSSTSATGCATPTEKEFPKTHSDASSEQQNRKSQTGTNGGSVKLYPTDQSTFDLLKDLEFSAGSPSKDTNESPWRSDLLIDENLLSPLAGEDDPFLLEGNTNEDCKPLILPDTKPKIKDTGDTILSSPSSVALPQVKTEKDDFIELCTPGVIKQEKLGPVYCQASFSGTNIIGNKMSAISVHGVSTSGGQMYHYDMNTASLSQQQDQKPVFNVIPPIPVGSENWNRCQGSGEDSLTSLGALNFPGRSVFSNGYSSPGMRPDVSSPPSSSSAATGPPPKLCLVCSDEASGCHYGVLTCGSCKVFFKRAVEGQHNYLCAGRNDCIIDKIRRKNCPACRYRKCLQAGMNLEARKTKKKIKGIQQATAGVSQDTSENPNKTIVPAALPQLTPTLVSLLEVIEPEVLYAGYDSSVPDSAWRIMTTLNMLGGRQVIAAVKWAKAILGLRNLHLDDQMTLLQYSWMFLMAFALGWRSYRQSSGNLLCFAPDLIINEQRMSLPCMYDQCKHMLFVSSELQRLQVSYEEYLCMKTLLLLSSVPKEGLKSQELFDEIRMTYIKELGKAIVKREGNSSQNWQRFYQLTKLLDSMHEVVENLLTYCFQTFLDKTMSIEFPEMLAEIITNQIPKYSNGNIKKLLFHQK

[3] = tested on: gluconeogenic enzymes in liver; conditions: Golf et al 1984; cited from earlier work
[4] = tested on: neuronal long-term potentiation; conditions: Dubrovsky et al 1987; cited from earlier work
[5] = tested on: tyrosine amino transferase (TAT) mRNA in H4iiE cells; experiment: Induction of tyrosine amino transferase (TAT) mRNA in H4iiE cells (Northern blot); format: cell-based; conditions: 1 micromol/l; for Induction of TAT mRNA: Northern blot corrected for U1; for Induction of TAT mRNA in presence of RU486: plus GR antagonist RU486
Description: Induction of the glucocorticoid-responsive enzyme tyrosine amino transferase (TAT) mRNA was measured by Northern blot in H4iiE cells incubated in the presence of corticosterone (B, 1 micromol/l) or 5α-tetrahydrocorticosterone (5α-THB, 1 micromol/l) or vehicle.

ACTH levels = experiment: ACTH suppression in adrenalectomised rats; format: in vivo, Male lean Zucker rats; conditions: 5 mg/kg intraperitoneal, 2 hours after injection, immunoassay
Description: Male lean Zucker rats aged ˜9 weeks were adrenalectomised. 3 weeks later, samples were obtained by tail tipping before and for 3 hours after intraperitoneal injection of either vehicle, corticosterone (B, 5 mg/kg body weight) or 5alpha-tetrahydrocorticosterone (THB5a, 5 mg/kg body weight). […] This is consistent with activation of glucocorticoid receptors at sites responsible for feedback suppression of the hypothalamic-pituitary-adrenal axis (principally pituitary, hypothalamus and hippocampus).

mouse aortic ring = experiment: Angiogenesis bioassay, aortic ring embedded in matrigel; format: cell-based; conditions: 7 days; for number of new vessels forming (angiogenesis): B 600 nmol/l, 5alpha-THB 1000 nmol/l; for angiogenesis effect in presence of RU486: plus GR antagonist RU486
Description: In this bioassay, the number of new vessels forming is measured over 7 days in a mouse aortic ring embedded in matrigel.

[6] = HeLa cells, GR and MMTV-luciferase
[7] = Hela cells transfected with GR and GRE/MMTV-luciferase, n=3

Structure (SMILES) | Induction of luciferase (GR activation), Example 5 [1, 6] | binding affinity for glucocorticoid receptors (GR) [2] | Fold induction of luciferase activity as a consequence of GR activation (dose response) [1, 7] | luciferase induction in response to activation of GR [1] | luciferase induction in cells without GR [1] | Induction of TAT mRNA [5] | Induction of TAT mRNA in presence of RU486 [5] | ACTH levels compared with vehicle (ACTH levels) | number of new vessels forming (angiogenesis) (mouse aortic ring) | angiogenesis effect in presence of RU486 (mouse aortic ring) | other results
C[C@]12CCC(=O)C[C@@H]1CC[C@@H]1[C@@H]2[C@@H](O)C[C@@]2(C)[C@H]1CC[C@]2(O)C(=O)CO [5alpha-dihydrocortisol] | induced significant GR activation |  |  |  |  |  |  |  |  |  | 
C[C@]12CC[C@@H](O)C[C@@H]1CC[C@@H]1[C@@H]2[C@@H](O)C[C@@]2(C)[C@H]1CC[C@]2(O)C(=O)CO [5alpha-tetrahydrocortisol] | induced significant GR activation |  |  |  |  |  |  |  |  |  | 
C[C@]12CCC(=O)C[C@@H]1CC[C@@H]1[C@@H]2[C@@H](O)C[C@]2(C)[C@@H](C(=O)CO)CC[C@@H]12 [5α-dihydrocorticosterone] |  | lower binding affinities |  |  |  |  |  |  |  |  | binding to glucocorticoid receptors, judged by displacement of bound dexamethasone (glucocorticoid receptors): does not bind to glucocorticoid receptors; activity of gluconeogenic enzymes in liver [3]: lowering activity of gluconeogenic enzymes in liver; effect on neuronal long-term potentiation [4]: inhibition of neuronal long-term potentiation
C[C@]12CC[C@@H](O)C[C@@H]1CC[C@@H]1[C@@H]2[C@@H](O)C[C@]2(C)[C@@H](C(=O)CO)CC[C@@H]12 [5α-tetrahydrocorticosterone] |  | equivalent binding affinity | activate a glucocorticoid receptor-dependent response; also recorded: lesser effect than corticosterone | activated GR | abolished in the absence of transfected receptor | induced TAT mRNA transcription | blocked | significantly suppressed ACTH levels | prevents angiogenesis | also blocked by RU486 | agonist type at GR (observed versus predicted additive luciferase response) ([1]; HeLa cells, GR and MMTV-luciferase, with and without corticosterone, n=6): full rather than partial agonist of GR; Fold induction of luciferase activity as a consequence of GR activation (comparative potency) ([1]; Hela cells transfected with GR and GRE/MMTV-luciferase, all steroids at 1 μM, n=3): more potent than 5α-dihydrocorticosterone
C[C@]12C[C@H](O)[C@H]3[C@@H](CCC4=CC(=O)CC[C@@]43C)[C@@H]1CC[C@@H]2C(=O)CO [corticosterone, reference compound] | induced significant GR activation |  | activate a glucocorticoid receptor-dependent response | activated GR | abolished in the absence of transfected receptor | induced TAT mRNA transcription | blocked | significantly suppressed ACTH levels | inhibits angiogenesis | blocked | 
C[C@]12CCC(=O)C=C1CC[C@@H]1[C@@H]2[C@@H](O)C[C@@]2(C)[C@H]1CC[C@]2(O)C(=O)CO [cortisol, reference compound] | induced significant GR activation |  |  |  |  |  |  |  |  |  | 
